# Assay results: patent US20120183579A1, “COMPOUNDS FOR INFLAMMATION AND IMMUNE-RELATED USES” (Synta Pharmaceuticals Corp., priority 2008, published 2012)
# Structures can show the parent of a compound that is named as a salt.
# Test system: IL-2
# Assay: Inhibition of IL-2 production (Jurkat cells activated with PHA, ELISA)
# Format: cell-based
# Conditions: Homo sapiens, Jurkat, Jurkat/PHA/1% FBS; numeric values
# Experimental: Jurkat cells were placed in a 96 well plate (0.5 million cells per well in 1% FBS medium), and then a test compound of this invention was added at different concentrations. After 10 minutes, the cells were activated with PHA (final concentration 2.5 μg/mL) and incubated for 20 hours at 37° C. under 5% CO2. The final volume was 200 μL. Following incubation, the cells were centrifuged, and the supernatants collected and stored at −70° C. prior to assaying for IL-2 production. A commercial ELISA kit (IL-2 Eli-pair, Diaclone Research, Besancon, France) was used to detect production of IL-2, from which dose response curves were obtained. The IC50 value was calculated as the concentration at which 50% of maximum IL-2 production after stimulation was inhibited versus a non-stimulation control.
row,Compound,IC50 [nM]
1,"COc1cccc(F)c1C(=O)Nc1cnc(C2=C(C)CCN(c3ncccc3F)C2)cn1 [Compound 46, 2-fluoro-N-(5-(1-(3-fluoropyridin-2-yl)-4-methyl-1,2,5,6-tetrahydropyridin-3-yl)pyrazin-2-yl)-6-methoxybenzamide]",35
2,"CCc1cnc(N2CCC(C)=C(c3cnc(NC(=O)c4c(F)cccc4F)cn3)C2)s1 [Compound 47, N-(5-(1-(5-ethylthiazol-2-yl)-4-methyl-1,2,5,6-tetrahydropyridin-3-yl)pyrazin-2-yl)-2,6-difluorobenzamide hydrochloride]",35
3,"CC1=C(c2cnc(NC(=O)c3c(F)cccc3Cl)cn2)CN(c2ncc(C)s2)CC1 [Compound 48, 2-chloro-6-fluoro-N-(5-(4-methyl-1-(5-methylthiazol-2-yl)-1,2,5,6-tetrahydropyridin-3-yl)pyrazin-2-yl)benzamide]",36
4,"CC1=C(c2cnc(NC(=O)c3cccc(F)c3Cl)cn2)CN(c2ncccc2F)CC1 [Compound 49, 2-chloro-3-fluoro-N-(5-(1-(3-fluoropyridin-2-yl)-4-methyl-1,2,5,6-tetrahydropyridin-3-yl)pyrazin-2-yl)benzamide]",36
5,"CC1=C(c2cnc(NC(=O)c3c(C)cccc3F)cn2)CN(c2ncc(C)s2)CC1 [Compound 50, 2-fluoro-6-methyl-N-(5-(4-methyl-1-(5-methylthiazol-2-yl)-1,2,5,6-tetrahydropyridin-3-yl)pyrazin-2-yl)benzamide]",37
6,"CC1=C(c2ccc(NC(=O)c3c(Cl)cncc3Cl)cc2)CN(c2ccccn2)CC1 [Compound 51, 3,5-dichloro-N-(4-(4-methyl-1-(pyridin-2-yl)-1,2,5,6-tetrahydropyridin-3-yl)phenyl)isonicotinamide]",37
7,"CC1=C(c2cnc(NC(=O)c3cccc(F)c3C)cn2)CN(c2ncc(C)s2)CC1 [Compound 52, 3-fluoro-2-methyl-N-(5-(4-methyl-1-(5-methylthiazol-2-yl)-1,2,5,6-tetrahydropyridin-3-yl)pyrazin-2-yl)benzamide hydrochloride]",40
8,"CC1=C(c2ccc(NC(=O)c3cc(F)ccc3C)nc2)CN(c2nnn(C)n2)CC1 [Compound 53, 5-fluoro-2-methyl-N-(5-(4-methyl-1-(2-methyl-2H-tetrazol-5-yl)-1,2,5,6-tetrahydropyridin-3-yl)pyridin-2-yl) benzamide]",40
9,"CC1=C(c2ccc(NC(=O)c3c(F)cccc3F)cc2)CN(c2nc(Cl)cs2)CC1 [Compound 54, N-(4-(1-(4-chlorothiazol-2-yl)-4-methyl-1,2,5,6-tetrahydropyridin-3-yl)phenyl)-2,6-difluorobenzamide]",40
10,"CC1=C(c2ccc(NC(=O)c3c(Cl)cncc3Cl)cc2)CN(c2ncccc2F)CC1 [Compound 55, 3,5-dichloro-N-(4-(1-(3-fluoropyridin-2-yl)-4-methyl-1,2,5,6-tetrahydropyridin-3-yl)phenyl)isonicotinamide]",41
11,"Cn1nnc(N2CCC(Cl)=C(c3ccc(NC(=O)c4c(F)cccc4Cl)cc3)C2)n1 [Compound 56, 2-chloro-N-(4-(4-chloro-1-(2-methyl-2H-tetrazol-5-yl)-1,2,5,6-tetrahydropyridin-3-yl)phenyl)-6-fluorobenzamide]",41
12,"CC1=C(c2ccc(NC(=O)c3c(C)cccc3Cl)cc2)CN(c2nnn(C)n2)CC1 [Compound 57, 2-chloro-6-methyl-N-(4-(4-methyl-1-(2-methyl-2H-tetrazol-5-yl)-1,2,5,6-tetrahydropyridin-3-yl)phenyl) benzamide]",41
13,"CC1=C(c2ccc(NC(=O)c3c(F)cccc3F)cc2)CN(c2cnccn2)CC1 [Compound 58, 2,6-difluoro-N-(4-(4-methyl-1-(pyrazin-2-yl)-1,2,5,6-tetrahydropyridin-3-yl)phenyl)benzamide]",44
14,"CC1=C(c2cnc(NC(=O)c3c(F)cccc3F)cn2)CN(c2nc(-c3cccnc3)cs2)CC1 [Compound 59, 2,6-difluoro-N-(5-(4-methyl-1-(4-(pyridin-3-yl)thiazol-2-yl)-1,2,5,6-tetrahydropyridin-3-yl)pyrazin-2-yl)benzamide]",44
15,"COc1cc(F)c(C(=O)Nc2cnc(C3=C(C)CCN(c4ncccc4F)C3)cn2)c(F)c1 [Compound 60, 2,6-difluoro-N-(5-(1-(3-fluoropyridin-2-yl)-4-methyl-1,2,5,6-tetrahydropyridin-3-yl)pyrazin-2-yl)-4-methoxybenzamide]",46
16,"C=CCOC(=O)N1CCC(C)=C(c2ccc(NC(=O)c3c(F)cccc3F)cc2)C1 [Compound 61, allyl 3-(4-(2,6-difluorobenzamido)phenyl)-4-methyl-5,6-dihydropyridine-1(2H)-carboxylate]",46
17,"Cn1nnc(N2CCC(Cl)=C(c3cnc(NC(=O)c4cc(F)ccc4Cl)cn3)C2)n1 [Compound 62, 2-chloro-N-(5-(4-chloro-1-(2-methyl-2H-tetrazol-5-yl)-1,2,5,6-tetrahydropyridin-3-yl)pyrazin-2-yl)-5-fluorobenzamide]",49
18,"CC1=C(c2cnc(NC(=O)c3ccc(F)cc3Cl)cn2)CN(c2ncccc2F)CC1 [Compound 63, 2-chloro-4-fluoro-N-(5-(1-(3-fluoropyridin-2-yl)-4-methyl-1,2,5,6-tetrahydropyridin-3-yl)pyrazin-2-yl) benzamide]",49
19,"CC1=C(c2ccc(NC(=O)c3c(F)cccc3F)cc2)CN(S(=O)(=O)N(C)C)CC1 [Compound 64, N-(4-(1-(N,N-dimethylsulfamoyl)-4-methyl-1,2,5,6-tetrahydropyridin-3-yl)phenyl)-2,6-difluorobenzamide]",49

# Now those with a lower IC50, led by results:
row,IC50 [nM],Compound
1,24,"CC1=C(c2ccc(NC(=O)c3cnccc3C)cc2)CN(c2ncccc2F)CC1 [Compound 36, N-(4-(1-(3-fluoropyridin-2-yl)-4-methyl-1,2,5,6-tetrahydropyridin-3-yl)phenyl)-4-methylnicotinamide]"
2,24,"CC1=C(c2ccc(NC(=O)c3cccc(F)c3C)nc2)CN(c2nnn(C)n2)CC1 [Compound 37, 3-fluoro-2-methyl-N-(5-(4-methyl-1-(2-methyl-2H-tetrazol-5-yl)-1,2,5,6-tetrahydropyridin-3-yl)pyridin-2-yl) benzamide]"
3,26,"CC1=C(c2cnc(NC(=O)c3c(F)cccc3F)cn2)CN(c2ccncc2F)CC1 [Compound 38, 2,6-difluoro-N-(5-(1-(3-fluoropyridin-4-yl)-4-methyl-1,2,5,6-tetrahydropyridin-3-yl)pyrazin-2-yl)benzamide]"
4,27,"CC1=C(c2ccc(NC(=O)c3sccc3C)cc2)CN(c2nccs2)CC1 [Compound 39, 3-methyl-N-(4-(4-methyl-1-(thiazol-2-yl)-1,2,5,6-tetrahydropyridin-3-yl)phenyl)thiophene-2-carboxamide]"
5,27,"CC1=C(c2cnc(NC(=O)c3cc(F)ccc3F)cn2)CN(c2ncccc2F)CC1 [Compound 40, 2,5-difluoro-N-(5-(1-(3-fluoropyridin-2-yl)-4-methyl-1,2,5,6-tetrahydropyridin-3-yl)pyrazin-2-yl)benzamide]"
6,28,"CC1=C(c2ccc(NC(=O)c3ccncc3C)cc2)CN(c2ncccc2F)CC1 [Compound 41, N-(4-(1-(3-fluoropyridin-2-yl)-4-methyl-1,2,5,6-tetrahydropyridin-3-yl)phenyl)-3-methylisonicotinamide]"
7,28,"CC1=C(c2cnc(NC(=O)c3cccc(F)c3C)cn2)CN(c2ncccc2F)CC1 [Compound 42, 3-fluoro-N-(5-(1-(3-fluoropyridin-2-yl)-4-methyl-1,2,5,6-tetrahydropyridin-3-yl)pyrazin-2-yl)-2-methylbenzamide]"
8,31,"CC1=C(c2ccc(NC(=O)c3c(F)cc(F)cc3F)cc2)CN(c2ncccc2C#N)CC1 [Compound 43, N-(4-(1-(3-cyanopyridin-2-yl)-4-methyl-1,2,5,6-tetrahydropyridin-3-yl)phenyl)-2,4,6-trifluorobenzamide]"
9,31,"CC1=C(c2cnc(NC(=O)c3c(F)cc(Br)cc3F)cn2)CN(c2ncccc2F)CC1 [Compound 44, 4-bromo-2,6-difluoro-N-(5-(1-(3-fluoropyridin-2-yl)-4-methyl-1,2,5,6-tetrahydropyridin-3-yl)pyrazin-2-yl) benzamide]"
10,33,"CC1=C(c2ccc(NC(=O)c3c(C)cccc3F)cc2)CN(c2nnn(C)n2)CC1 [Compound 45, 2-fluoro-6-methyl-N-(4-(4-methyl-1-(2-methyl-2H-tetrazol-5-yl)-1,2,5,6-tetrahydropyridin-3-yl)phenyl) benzamide]"
